The subject of data set [1] is breast cancer cells (MCF-7). Nature of the data set: MTS-based cytotoxicity assay, MCF-7. The class given is cell-based, human. To be noted: 72 h treatment, 0.205–50 μM, mean ± SEM. As to the method: (§1) In this study, we applied the most extensively used MTS-based assay, which provides a valuable tool for determining cell viability by evaluating metabolic activity. The cytostatic activity of the tested compounds was defined as the half-maximal inhibitory concentration (IC50) causing a 50% decrease in the metabolic activity of the cells. It was determined against breast cancer (MCF-7), fibrosarcoma (HT-1080), and prostate cancer (PC-3) cells.
(§2) The tested compounds were tested against three different human cancer cell lines (breast adenocarcinoma MCF-7 ATCC® HTB-22^TM, fibrosarcoma HT-1080 ATCC® CCL121^TM, and prostate adenocarcinoma PC-3 ATCC® CRL-1435^TM). For the cell viability experiment, cells were seeded in transparent 96-well plates (FALCON no. 353072, Corning, Durham, NC, USA) in MEM (Gibco no. 31095-029, UK) supplemented with 10% heat-inactivated FBS (Gibco no. 10500-064, UK). The cell seeding density was as follows: MCF-7 12,000 cells/well, HT-1080 7000 cells/well, PC-3 10,000 cells/well. Cells were seeded one day before treatment with the tested compounds and cultured overnight. The confluence on the treatment day was around 30%. The tested compounds were dissolved in DMSO as 10 mM stock solutions and kept under −4 °C. On the day of experimentation, the medium was removed and replaced with a fresh one that contained the following: (1) dimethylsulfoxide (DMSO < 0.1%, vehicle control (Veh)); (2) increasing the concentration of compounds (0.205–50 μM, performed as a 2.5-fold serial dilution for dose–response analysis). Treatment with compounds was carried out for 72 h. Each treatment was replicated three times in a single experiment, with three separate experiments conducted. (n = 9). When significant variability in the results occurred, an additional test was performed on certain compounds. During the incubation, the cells were examined under an inverted microscope to check if the compounds had not precipitated in the culture medium. The inhibitory effect of compounds on the cell was examined using an MTS-based assay (Promega, Madison, WI, USA) following the manufacturer’s protocol. The absorbance was measured at 490 nm using Tecan Spark’s multimode plate reader (Tecan, Männedorf, Switzerland). A reference wavelength of 630 nm was used to subtract the background. IC50 values were calculated by fitting a non-linear regression to a sigmoidal dose–response curve in GraphPad Prism version 8.0.1.
(Tetrazolium dyes change colour on reduction, which living cells bring about.)

In data set [2] the test system is fibrosarcoma cells (HT-1080). Nature of the data set: MTS-based cytotoxicity assay, HT-1080. In kind it is cell-based, human. The conditions noted are these: 72 h treatment, 0.205–50 μM, mean ± SEM. As for the experimental part:
as §1, §2

Data set [3] relates to prostate cancer cells (PC-3). Nature of the data set: MTS-based cytotoxicity assay, PC-3. The class given is cell-based, human. To be noted: 72 h treatment, 0.205–50 μM, mean ± SEM. As for the experimental part:
as §1, §2

The subject of data set [4] is human embryonic kidney cells (HEK293). Nature of the data set: Safety study in vitro (MTS viability), HEK293. To be noted: 0.205–50 μM, 72 h. In kind it is cell-based. As for the experimental part: (§3) In drug development, particular attention should be paid to studying the safety profile of compounds. Promising drug candidates should not cause adverse effects on essential organ systems like the liver, kidney, or healthy cells in general. Systemic toxicity of the compound is the main factor limiting its therapeutic application and efficiency. In our study, a preliminary study on nephrotoxicity and hepatotoxicity was evaluated in human embryonic kidney cells (HEK293, ATCC® CRL1573™) and human hepatoma cells (HepG2, ATCC® HB8065™), respectively. HEK293 is commonly used to evaluate the cytotoxicity of nephrotoxic compounds [42]. HepG2 is a well-established in vitro human cell system to study liver toxicity. We also used healthy human skin fibroblast (HSF) to extend the cytotoxicity profile. All three cell lines were cultured in DMEM (Gibco no. 61965-026, UK) supplemented with 10% FBS (Gibco no. 10500-064, UK). For the experiment, cells were seeded (8 × 10^3 cells/100μL/well) in transparent 96-well plates (FALCON no. 353072, Corning, Durham, […], USA) and cultured overnight. […] DOX was a reference compound that adversely affected the liver, kidney, and healthy cells. Treatment with compounds was carried out for 72 h. Cell viability was examined using an MTS-based CellTiter96® AQueous One Solution Cell Proliferation Assay (Promega, Madison, WI, USA) following the manufacturer’s protocol.

Data set [5] has as its system human hepatoma cells (HepG2). Nature of the data set: Safety study in vitro (MTS viability), HepG2. The class given is cell-based. The conditions noted are these: 0.205–50 μM, 72 h. As for the experimental part:
as §3

In data set [6] the test system is human skin fibroblast (HSF). Nature of the data set: Safety study in vitro (MTS viability), HSF. In kind it is cell-based. The conditions noted are these: 0.205–50 μM, 72 h. As for the experimental part:
as §3

These results are taken from publication PMC11243672, “New 3-(Dibenzyloxyphosphoryl)isoxazolidine Conjugates of N1-Benzylated Quinazoline-2,4-diones as Potential Cytotoxic Agents against Cancer Cell Lines” (Molecules, 2024).

As a reminder, the IC50 is the concentration that inhibits the measured activity by half. Higher therefore signals a need for much substance. As for `O=c1c2ccccc2n(CC2CC(P(=O)(OCc3ccccc3)OCc3ccccc3)N(Cc3ccccc3)O2)c(=O)n1Cc1cccc([N+](=O)[O-])c1` (stereo not drawn) [cis-16f/trans-16f (96:4), Dibenzyl cis- and trans-2-benzyl-5-((3-(3-nitrobenzyl)-2,4-dioxo-3,4-dihydroquinazolin-1(2H)-yl)methyl)isoxazolidin-3-yl)phosphonate], the IC50 in data set [1] (Homo sapiens, MCF7, 72 h) is 91.7 ± 1.47 µM; in data set [2] (Homo sapiens, HT-1080, 72 h) it was 17.1 ± 5.73 µM; in data set [3] (Homo sapiens, 72 h), 24.8 ± 2.15 µM.

In the case of `O=c1c2ccccc2n(C[C@@H]2C[C@@H](P(=O)(OCc3ccccc3)OCc3ccccc3)N(Cc3ccccc3)O2)c(=O)n1Cc1cccc(F)c1` (relative stereo) [trans-16c, Dibenzyl cis- and trans-5-((3-(3-fluorobenzyl)-3,4-dihydro-2,4-dioxoquinazolin-1(2H)-yl)methyl)-2-benzylisoxazolidin-3-yl-3-phosphonate], the IC50 in data set [1] (Homo sapiens, MCF7, 72 h) is 130 ± 9.97 µM; in data set [2] (Homo sapiens, HT-1080, 72 h), 42.3 ± 3.48 µM; in data set [3] (Homo sapiens, 72 h), 16.4 ± 4.32 µM.

As for `O=c1c2ccccc2n(CC2CC(P(=O)(OCc3ccccc3)OCc3ccccc3)N(Cc3ccccc3)O2)c(=O)n1Cc1ccc(F)cc1` (stereo not drawn) [cis-16d/trans-16d (96:4), Dibenzyl cis- and trans-5-((3-(4-fluorobenzyl)-3,4-dihydro-2,4-dioxoquinazolin-1(2H)-yl)methyl)-2-benzylisoxazolidin-3-yl-3-phosphonate], the IC50 was 116 ± 5.73 µM in data set [1] (Homo sapiens, MCF7, 72 h); 10.4 ± 2.69 µM in data set [2] (Homo sapiens, HT-1080, 72 h); 16.4 ± 3.69 µM in data set [3] (Homo sapiens, 72 h).

For the compound `O=c1c2ccccc2n(CC2CC(P(=O)(OCc3ccccc3)OCc3ccccc3)N(Cc3ccccc3)O2)c(=O)n1Cc1cccc(F)c1` (stereo not drawn) [cis-16c/trans-16c (90:10), Dibenzyl cis- and trans-5-((3-(3-fluorobenzyl)-3,4-dihydro-2,4-dioxoquinazolin-1(2H)-yl)methyl)-2-benzylisoxazolidin-3-yl-3-phosphonate], the IC50 in data set [1] (Homo sapiens, MCF7, 72 h) was 238 ± 20.7 µM; in data set [2] (Homo sapiens, HT-1080, 72 h) it was 20.5 ± 1.56 µM; in data set [3] (Homo sapiens, 72 h), 17.6 ± 6.21 µM.

Consider `O=c1c2ccccc2n(C[C@@H]2C[C@@H](P(=O)(OCc3ccccc3)OCc3ccccc3)N(Cc3ccccc3)O2)c(=O)n1Cc1ccc(F)cc1` (relative stereo) [trans-16d, Dibenzyl cis- and trans-5-((3-(4-fluorobenzyl)-3,4-dihydro-2,4-dioxoquinazolin-1(2H)-yl)methyl)-2-benzylisoxazolidin-3-yl-3-phosphonate], for which the IC50 in data set [1] (Homo sapiens, MCF7, 72 h) amounted to 88.9 ± 3.86 µM; in data set [2] (Homo sapiens, HT-1080, 72 h), 35.6 ± 3.03 µM; in data set [3] (Homo sapiens, 72 h), 13.9 ± 2.14 µM.

For `O=c1c2ccccc2n(CC2CC(P(=O)(OCc3ccccc3)OCc3ccccc3)N(Cc3ccccc3)O2)c(=O)n1Cc1ccccc1` (stereo not drawn) [cis-16a/trans-16a (97:3), Dibenzyl cis- and trans-2-benzyl-5-((3-benzyl-3,4-dihydro-2,4-dioxoquinazolin-1(2H)-yl)methyl)isoxazolidin-3-yl-3-phosphonate], the IC50 in data set [1] (Homo sapiens, MCF7, 72 h) stood at 90.3 ± 4.57 µM; in data set [2], 19.9 ± 8.13 µM; in data set [3] (Homo sapiens, 72 h), 12.6 ± 5.56 µM. The “Cell viability, HEK293” value in data set [4] is given as “did not affect cell viability”. For the same compound, the “Cell viability, HepG2” value in data set [5] is “did not affect cell viability”. In addition, the “Cell viability, HSF” value in data set [6] is on record as “no adverse effect was observed”.

For `O=c1c2ccccc2n(CC2CC(P(=O)(OCc3ccccc3)OCc3ccccc3)N(Cc3ccccc3)O2)c(=O)n1Cc1ccc([N+](=O)[O-])cc1` (stereo not drawn) [cis-16g/trans-16g (88:12), Dibenzyl cis- and trans-(2-benzyl-5-((3-(4-nitrobenzyl)-2,4-dioxo-3,4-dihydroquinazolin-1(2H)-yl)methyl)isoxazolidin-3-yl)phosphonate], the IC50 came out at 116 ± 9.69 µM in data set [1] (Homo sapiens, MCF7, 72 h); 16.4 ± 2.03 µM in data set [2] (Homo sapiens, HT-1080, 72 h); 21.5 ± 4.63 µM in data set [3] (Homo sapiens, 72 h).

Regarding `O=c1c2ccccc2n(C[C@@H]2C[C@@H](P(=O)(OCc3ccccc3)OCc3ccccc3)N(Cc3ccccc3)O2)c(=O)n1Cc1ccccc1[N+](=O)[O-]` (relative stereo) [trans-16e, Dibenzyl cis- and trans-(2-benzyl-5-((3-(2-nitrobenzyl)-2,4-dioxo-3,4-dihydroquinazolin-1(2H)-yl)methyl)isoxazolidin-3-yl)phosphonate], the IC50 in data set [1] (Homo sapiens, MCF7, 72 h) was found to be 57.9 ± 8.36 µM; in data set [2] (Homo sapiens, HT-1080, 72 h) it was 29.8 ± 4.75 µM; in data set [3] (Homo sapiens, 72 h) it was 26.6 ± 1.09 µM.

With `O=c1c2ccccc2n(CC2CC(P(=O)(OCc3ccccc3)OCc3ccccc3)N(Cc3ccccc3)O2)c(=O)n1Cc1ccccc1[N+](=O)[O-]` (stereo not drawn) [cis-16e/trans-16e (70:30), Dibenzyl cis- and trans-(2-benzyl-5-((3-(2-nitrobenzyl)-2,4-dioxo-3,4-dihydroquinazolin-1(2H)-yl)methyl)isoxazolidin-3-yl)phosphonate], the IC50 in data set [1] (Homo sapiens, MCF7, 72 h) stood at 59.1 ± 3.77 µM; in data set [2] (Homo sapiens, HT-1080, 72 h), 59.6 ± 0.36 µM; in data set [3] (Homo sapiens, 72 h), 26.6 ± 4.69 µM.

For `O=c1c2ccccc2n(C[C@@H]2C[C@@H](P(=O)(OCc3ccccc3)OCc3ccccc3)N(Cc3ccccc3)O2)c(=O)n1Cc1cccc([N+](=O)[O-])c1` (relative stereo) [trans-16f, Dibenzyl cis- and trans-2-benzyl-5-((3-(3-nitrobenzyl)-2,4-dioxo-3,4-dihydroquinazolin-1(2H)-yl)methyl)isoxazolidin-3-yl)phosphonate], the IC50 in data set [1] (Homo sapiens, MCF7, 72 h) was found to be 59.4 ± 0.78 µM; in data set [2] (Homo sapiens, HT-1080, 72 h), 23.1 ± 9.22 µM; in data set [3] (Homo sapiens, 72 h), 18.1 ± 0.98 µM.

As for `O=c1c2ccccc2n(CC2CC(P(=O)(OCc3ccccc3)OCc3ccccc3)N(Cc3ccccc3)O2)c(=O)n1Cc1ccccc1F` (stereo not drawn) [cis-16b/trans-16b (90:10), Dibenzyl cis- and trans-5-((3-(2-fluorobenzyl)-3,4-dihydro-2,4-dioxoquinazolin-1(2H)-yl)methyl)-2-benzylisoxazolidin-3-yl-3-phosphonate], the IC50 in data set [1] (Homo sapiens, MCF7, 72 h) amounted to 104 ± 7.38 µM; in data set [2] (Homo sapiens, HT-1080, 72 h) it was 27.3 ± 5.43 µM; in data set [3] (Homo sapiens, 72 h) it was 11.2 ± 1.99 µM. Also, the “Cell viability, HEK293” value in data set [4] is on record as “did not affect cell viability”. Further, the “Cell viability, HepG2” value in data set [5] is “did not affect cell viability”. In addition, the “Cell viability, HSF” value in data set [6] is on record as “no adverse effect was observed”.

As to `COc1cccc2c1C(=O)c1c(O)c3c(c(O)c1C2=O)C[C@@](O)(C(=O)CO)C[C@@H]3O[C@H]1C[C@H](N)[C@H](O)[C@H](C)O1` [Doxorubicin, reference compound], the “Cell viability, HEK293” value in data set [4] is listed as “significant cytotoxic effect”. Also, the “Cell viability, HepG2” value in data set [5] was “significant cytotoxic effect”. In addition, the “Cell viability, HSF” value in data set [6] was “significant cytotoxic effect”.

For `O=c1c2ccccc2n(C[C@@H]2C[C@@H](P(=O)(OCc3ccccc3)OCc3ccccc3)N(Cc3ccccc3)O2)c(=O)n1Cc1ccc([N+](=O)[O-])cc1` (relative stereo) [trans-16g, Dibenzyl cis- and trans-(2-benzyl-5-((3-(4-nitrobenzyl)-2,4-dioxo-3,4-dihydroquinazolin-1(2H)-yl)methyl)isoxazolidin-3-yl)phosphonate], the concentration for half-maximal inhibition (IC50) in data set [1] (Homo sapiens, MCF7, 72 h) was determined as 142 ± 5.11 µM; in data set [2] (Homo sapiens, HT-1080, 72 h), 16.6 ± 3.11 µM; in data set [3] (Homo sapiens, 72 h) it was 16.7 ± 3.48 µM.

Turning to `O=c1c2ccccc2n(CC2CC(P(=O)(OCc3ccccc3)OCc3ccccc3)N(Cc3ccccc3)O2)c(=O)n1Cc1ccccc1` (stereo not drawn) [trans-16a, Dibenzyl cis- and trans-2-benzyl-5-((3-benzyl-3,4-dihydro-2,4-dioxoquinazolin-1(2H)-yl)methyl)isoxazolidin-3-yl-3-phosphonate], the figures for the IC50 in data set [1], in data set [2] and in data set [3] were 96 ± 4.66 µM, 40.5 ± 5.44 µM and 12.7 ± 3.45 µM, respectively.
